How the values were obtained:
[1] = target: T1, Type-1 angiotensin II receptor (Homo sapiens, UniProt P30556)
T1 sequence (P30556 whole entry): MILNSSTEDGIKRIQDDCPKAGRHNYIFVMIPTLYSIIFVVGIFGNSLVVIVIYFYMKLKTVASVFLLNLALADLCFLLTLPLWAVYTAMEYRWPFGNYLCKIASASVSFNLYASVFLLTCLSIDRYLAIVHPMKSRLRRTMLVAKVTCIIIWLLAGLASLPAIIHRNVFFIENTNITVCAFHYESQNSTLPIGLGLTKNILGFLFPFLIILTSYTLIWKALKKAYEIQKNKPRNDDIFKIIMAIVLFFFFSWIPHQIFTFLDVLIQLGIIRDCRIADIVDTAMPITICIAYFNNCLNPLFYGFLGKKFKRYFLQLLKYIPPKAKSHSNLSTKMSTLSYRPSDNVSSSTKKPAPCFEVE

[2] = target: T2, Muscarinic acetylcholine receptor M2 (Homo sapiens, UniProt P08172); type: functional, cell-based
T2 sequence (P08172 whole entry): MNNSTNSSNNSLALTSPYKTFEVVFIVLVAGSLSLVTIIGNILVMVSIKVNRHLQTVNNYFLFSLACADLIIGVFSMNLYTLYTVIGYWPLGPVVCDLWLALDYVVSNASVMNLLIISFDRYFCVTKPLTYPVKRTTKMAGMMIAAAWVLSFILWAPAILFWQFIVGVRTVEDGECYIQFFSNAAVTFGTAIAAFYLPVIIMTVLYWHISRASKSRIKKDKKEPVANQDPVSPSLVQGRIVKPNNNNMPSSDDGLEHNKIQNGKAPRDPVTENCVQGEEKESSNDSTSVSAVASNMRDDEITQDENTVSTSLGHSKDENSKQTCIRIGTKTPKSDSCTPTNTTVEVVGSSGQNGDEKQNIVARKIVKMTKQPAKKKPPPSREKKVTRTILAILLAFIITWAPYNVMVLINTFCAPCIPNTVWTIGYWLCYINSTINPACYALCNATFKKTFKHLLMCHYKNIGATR

[3] = target: Neuronal acetylcholine receptor subunit alpha-4 (Homo sapiens, UniProt P43681)
[4] = target: T3, 5-hydroxytryptamine receptor 1A (Homo sapiens, UniProt P08908); type: functional, cell-based
T3 sequence (P08908 whole entry): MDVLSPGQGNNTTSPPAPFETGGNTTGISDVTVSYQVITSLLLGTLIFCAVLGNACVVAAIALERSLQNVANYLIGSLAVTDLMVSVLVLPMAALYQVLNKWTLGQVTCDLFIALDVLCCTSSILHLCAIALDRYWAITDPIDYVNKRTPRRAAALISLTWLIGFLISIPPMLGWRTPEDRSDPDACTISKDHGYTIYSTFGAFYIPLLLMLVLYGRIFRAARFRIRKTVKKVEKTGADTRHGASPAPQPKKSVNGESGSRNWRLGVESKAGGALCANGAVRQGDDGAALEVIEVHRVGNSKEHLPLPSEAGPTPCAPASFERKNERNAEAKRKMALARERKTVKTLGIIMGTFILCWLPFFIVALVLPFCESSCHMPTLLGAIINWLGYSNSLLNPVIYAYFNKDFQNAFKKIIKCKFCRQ

Melanocortin receptor 3 = Melanocortin receptor 3 (Homo sapiens, UniProt P41968)
Motilin receptor = Motilin receptor (Homo sapiens, UniProt O43193)
[5] = target: 3',5'-cyclic-AMP phosphodiesterase 4D (Homo sapiens, UniProt Q08499); type: functional
[6] = target: T4, Prostaglandin G/H synthase 1 (Rattus norvegicus, UniProt Q63921); type: functional
T4 sequence (Q63921 whole entry): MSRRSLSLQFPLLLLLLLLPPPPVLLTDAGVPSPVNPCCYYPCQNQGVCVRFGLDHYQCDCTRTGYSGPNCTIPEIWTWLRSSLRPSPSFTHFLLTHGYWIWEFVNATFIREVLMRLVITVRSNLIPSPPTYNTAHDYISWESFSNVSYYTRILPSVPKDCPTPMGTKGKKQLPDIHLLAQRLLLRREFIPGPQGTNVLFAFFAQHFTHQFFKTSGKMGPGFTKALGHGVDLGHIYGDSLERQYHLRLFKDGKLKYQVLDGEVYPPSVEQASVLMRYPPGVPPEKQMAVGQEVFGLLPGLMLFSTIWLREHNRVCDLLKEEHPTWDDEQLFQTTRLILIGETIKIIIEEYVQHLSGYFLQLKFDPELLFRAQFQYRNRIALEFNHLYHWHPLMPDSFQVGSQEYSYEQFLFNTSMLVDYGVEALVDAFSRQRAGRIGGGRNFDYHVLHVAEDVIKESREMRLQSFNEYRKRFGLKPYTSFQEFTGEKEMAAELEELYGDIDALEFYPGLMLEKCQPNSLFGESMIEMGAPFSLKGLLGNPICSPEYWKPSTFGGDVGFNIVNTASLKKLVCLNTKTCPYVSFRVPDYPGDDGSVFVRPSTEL

[7] = target: T5, Amine oxidase [flavin-containing] A (Homo sapiens, UniProt P21397); type: functional
T5 sequence (P21397 whole entry): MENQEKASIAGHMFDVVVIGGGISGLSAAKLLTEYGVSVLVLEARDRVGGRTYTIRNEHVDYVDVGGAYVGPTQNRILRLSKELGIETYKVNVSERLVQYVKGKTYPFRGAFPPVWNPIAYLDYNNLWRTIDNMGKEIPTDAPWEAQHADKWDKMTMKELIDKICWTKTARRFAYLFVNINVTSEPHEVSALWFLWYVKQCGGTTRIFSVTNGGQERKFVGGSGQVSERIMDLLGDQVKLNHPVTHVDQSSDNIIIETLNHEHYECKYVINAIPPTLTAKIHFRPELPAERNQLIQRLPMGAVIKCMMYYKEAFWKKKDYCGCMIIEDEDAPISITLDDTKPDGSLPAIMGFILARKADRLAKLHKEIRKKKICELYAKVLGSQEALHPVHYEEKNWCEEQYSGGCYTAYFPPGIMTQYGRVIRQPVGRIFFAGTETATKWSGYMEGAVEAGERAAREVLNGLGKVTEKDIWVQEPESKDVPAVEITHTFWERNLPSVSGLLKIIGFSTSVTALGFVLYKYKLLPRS
Further: assay procedure not described here.

Neuronal acetylcholine receptor subunit alpha-4, sequence (P43681 whole entry): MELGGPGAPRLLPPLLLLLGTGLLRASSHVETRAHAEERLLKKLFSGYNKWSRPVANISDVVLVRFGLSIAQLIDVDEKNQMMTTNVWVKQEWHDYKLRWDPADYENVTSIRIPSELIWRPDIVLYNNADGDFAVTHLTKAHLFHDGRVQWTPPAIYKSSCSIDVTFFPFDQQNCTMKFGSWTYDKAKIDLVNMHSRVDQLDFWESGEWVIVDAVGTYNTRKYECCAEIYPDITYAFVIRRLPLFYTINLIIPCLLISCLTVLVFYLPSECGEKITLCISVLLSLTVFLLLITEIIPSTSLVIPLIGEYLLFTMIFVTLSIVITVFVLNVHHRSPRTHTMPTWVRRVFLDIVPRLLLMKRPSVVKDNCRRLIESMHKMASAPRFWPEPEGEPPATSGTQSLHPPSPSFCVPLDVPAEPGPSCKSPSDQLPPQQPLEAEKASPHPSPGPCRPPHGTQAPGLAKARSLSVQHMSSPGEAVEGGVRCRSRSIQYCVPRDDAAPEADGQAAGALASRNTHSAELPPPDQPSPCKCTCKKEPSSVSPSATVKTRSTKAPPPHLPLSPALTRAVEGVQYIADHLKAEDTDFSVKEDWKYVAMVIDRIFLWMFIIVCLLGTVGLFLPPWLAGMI
3',5'-cyclic-AMP phosphodiesterase 4D, sequence (Q08499 whole entry): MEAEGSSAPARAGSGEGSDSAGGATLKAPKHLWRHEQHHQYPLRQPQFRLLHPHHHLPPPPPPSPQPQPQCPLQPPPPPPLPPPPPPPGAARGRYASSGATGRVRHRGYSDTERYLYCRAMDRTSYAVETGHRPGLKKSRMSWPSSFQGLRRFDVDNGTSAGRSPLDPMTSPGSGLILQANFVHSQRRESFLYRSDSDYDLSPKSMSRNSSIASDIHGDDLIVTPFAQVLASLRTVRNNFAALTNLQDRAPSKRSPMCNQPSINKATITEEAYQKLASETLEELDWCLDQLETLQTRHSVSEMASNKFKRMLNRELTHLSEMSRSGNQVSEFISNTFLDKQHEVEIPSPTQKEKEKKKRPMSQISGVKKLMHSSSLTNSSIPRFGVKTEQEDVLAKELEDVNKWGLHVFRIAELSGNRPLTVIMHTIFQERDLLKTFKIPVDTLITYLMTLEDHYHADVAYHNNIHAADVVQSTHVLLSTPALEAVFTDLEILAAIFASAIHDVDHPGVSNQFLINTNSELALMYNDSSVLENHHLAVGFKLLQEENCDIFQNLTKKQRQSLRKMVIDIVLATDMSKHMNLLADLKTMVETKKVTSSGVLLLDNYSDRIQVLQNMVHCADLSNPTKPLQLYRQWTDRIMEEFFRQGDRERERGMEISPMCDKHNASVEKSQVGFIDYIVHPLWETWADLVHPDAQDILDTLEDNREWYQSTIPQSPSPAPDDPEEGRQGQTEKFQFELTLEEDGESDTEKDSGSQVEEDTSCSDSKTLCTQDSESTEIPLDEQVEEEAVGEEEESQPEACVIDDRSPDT
Motilin receptor, sequence (O43193 whole entry): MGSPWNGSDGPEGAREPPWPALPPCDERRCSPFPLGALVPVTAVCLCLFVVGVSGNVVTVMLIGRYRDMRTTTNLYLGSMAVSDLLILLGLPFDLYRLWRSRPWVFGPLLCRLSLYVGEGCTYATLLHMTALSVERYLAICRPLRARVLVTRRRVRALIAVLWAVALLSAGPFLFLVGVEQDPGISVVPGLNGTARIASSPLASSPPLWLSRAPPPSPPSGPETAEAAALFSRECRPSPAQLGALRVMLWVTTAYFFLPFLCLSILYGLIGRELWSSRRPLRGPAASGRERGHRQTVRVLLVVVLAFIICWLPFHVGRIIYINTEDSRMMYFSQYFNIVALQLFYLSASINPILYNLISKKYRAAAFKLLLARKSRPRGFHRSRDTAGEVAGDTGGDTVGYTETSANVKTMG
Melanocortin receptor 3, sequence (P41968 whole entry): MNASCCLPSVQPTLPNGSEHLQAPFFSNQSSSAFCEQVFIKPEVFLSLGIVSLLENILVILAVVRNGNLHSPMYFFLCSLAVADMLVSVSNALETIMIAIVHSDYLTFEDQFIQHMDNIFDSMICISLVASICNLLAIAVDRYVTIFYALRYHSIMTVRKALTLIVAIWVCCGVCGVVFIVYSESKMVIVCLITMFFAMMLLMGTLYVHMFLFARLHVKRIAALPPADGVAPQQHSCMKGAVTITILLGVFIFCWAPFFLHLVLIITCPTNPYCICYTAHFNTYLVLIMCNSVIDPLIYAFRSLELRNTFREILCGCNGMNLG

| SMILES | AC50 [1] | AC50 [2] | AC50 [3] | AC50 [4] | AC50 (Melanocortin receptor 3) | AC50 (Motilin receptor) | AC50 [5] | AC50 [6] | AC50 [7] |
| --- | --- | --- | --- | --- | --- | --- | --- | --- | --- |
| CCC(C)C(CC)C(N)=O (stereo unspecified) [VALNOCTAMIDE] | > 30 µM | > 30 µM | > 30 µM | > 30 µM | > 30 µM | > 30 µM | > 30 µM | > 30 µM | > 30 µM |
| Cc1cnc(C(=O)NCCc2ccc(S(=O)(=O)NC(=O)NC3CCCCC3)cc2)cn1 [GLIPIZIDE] | > 30 µM |  | > 10 µM | > 10 µM | > 30 µM | > 10 µM | > 30 µM |  | > 10 µM |
| CCCN[C@H]1CCc2nc(N)sc2C1 [PRAMIPEXOLE] | > 30 µM | > 10 µM | > 10 µM | 16 µM | > 30 µM | > 10 µM | > 30 µM | > 30 µM | > 10 µM |
| CC(C)[C@H](N)C(=O)OCC(CO)OCn1cnc2c(=O)nc(N)[nH]c21 (stereo partly specified) [VALGANCICLOVIR] | > 30 µM | > 30 µM | > 30 µM | > 30 µM | > 30 µM | > 30 µM | > 30 µM | > 30 µM | > 30 µM |
| [H]/N=C(/N)N/C(=N/[H])NCCc1ccccc1 [PHENFORMIN] | > 30 µM | > 10 µM | > 10 µM | > 30 µM | > 30 µM | > 10 µM | > 30 µM | > 30 µM | > 30 µM |
| Cc1cc(C(C)(C)C)cc(C)c1CC1=NCCN1 [XYLOMETAZOLINE] | > 30 µM | > 30 µM | > 30 µM | 0.0178 µM | > 30 µM | > 30 µM | > 30 µM | > 30 µM | > 30 µM |
| CCOC(=O)C1=C[C@]2(CC)CCCN3CCc4c(n1c1ccccc41)[C@@H]32 [VINPOCETINE] | > 30 µM | 13 µM | > 30 µM | > 30 µM | > 30 µM | > 30 µM | 8.8 µM | > 30 µM | > 30 µM |
| O=C(O)c1cn(C2CC2)c2cc(N3CCNCC3)c(F)cc2c1=O [CIPROFLOXACIN] | > 30 µM |  |  |  | > 30 µM | > 10 µM | > 30 µM |  |  |
| C#C[C@]1(OC(C)=O)CC[C@H]2[C@@H]3CCC4=C/C(=N/O)CC[C@@H]4[C@H]3CC[C@@]21CC [NORGESTIMATE] | 22 µM | > 30 µM | > 30 µM | > 30 µM | > 30 µM | > 30 µM | 13 µM | 7.8 µM | > 30 µM |
| CC(C(=O)O)c1ccc(-c2ccccc2)c(F)c1 (stereo unspecified) [FLURBIPROFEN] | > 10 µM | > 10 µM | > 10 µM | > 10 µM | > 10 µM | > 10 µM | > 30 µM | 11 µM | > 10 µM |
| Cc1cc2cc3c(C)cc(=O)oc3c(C)c2o1 [TRIOXSALEN] | > 10 µM | > 10 µM | > 10 µM | > 10 µM | > 10 µM | > 10 µM |  | > 10 µM | 0.72 µM |

From ChEMBL document CHEMBL5291721, “A preclinical secondary pharmacology resource illuminates target-adverse drug reaction associations of marketed drugs” (Nat Commun, 2023)
